The record followed here is PubChem BioAssay (NCI).

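All cell lines were grown in 96-well plates and treated with compound for 48 hours. TGI: total growth inhibition.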

Experiment in all cases: NCI-60 cell line screen, 48 h
Experiment [1] deals with TK-10 renal.
In experiment [2] the test system is A549 NSCLC.
Experiment [3] concerns K-562 leukemia.
For experiment [4], the system named is M14 melanoma.
Experiment [5] concerns NCI/ADR-RES ovarian.
Experiment [6] concerns NCI-H460 lung.
The test system of experiment [7] is T-47D breast.
The subject of experiment [8] is OVCAR-5 ovarian.
The test system of experiment [9] is ACHN renal.
Experiment [10] concerns SK-MEL-28 melanoma.
Experiment [11] concerns UACC-257 melanoma.
Experiment [12] relates to IGROV1 ovarian.
The test system of experiment [13] is HT29 colon.
In experiment [14] the test system is 786-0 renal.
Experiment [15] concerns OVCAR-8 ovarian.
The test system of experiment [16] is CCRF-CEM leukemia.
The test system of experiment [17] is SN12C renal.
For experiment [18], the system named is MOLT-4 leukemia.
In experiment [19] the test system is RPMI-8226 leukemia.
For experiment [20], the system named is SW-620 colon.

With `CC(=O)OC(C)c1cc2c(s1)C(=O)c1scc(C(C)OC(C)=O)c1C2=O` (stereo unspecified), the TGI in experiment [1] was 1.83 µM; in experiment [2] it was 4.06 µM; in experiment [3], above 100 µM; in experiment [4] it was 0.238 µM; in experiment [5], 0.802 µM; in experiment [6], 0.344 µM. The TGI in experiment [7] is 2.1 µM; in experiment [8] it was 2.74 µM; in experiment [9], 0.628 µM; in experiment [10], 0.378 µM; in [11], 0.463 µM; in [12], 2.04 µM. In addition, the TGI in [13] came to 3.53 µM; in experiment [14], 0.461 µM; in [15] it was 0.546 µM.

Turning to `Cc1nc2ccccc2c(=O)n1NC(=O)c1ccc([N+](=O)[O-])cc1`, the TGI in experiment [1], in experiment [2], in experiment [3], in [4], in experiment [16] and in experiment [6] was above 100 µM each time. Further, the TGI in experiment [7], in experiment [8], in experiment [9], in experiment [10], in experiment [17] and in experiment [11] was above 100 µM each time. Moreover, the TGI in experiment [18], in experiment [12], in experiment [19], in experiment [13], in [14] and in [15] was above 100 µM throughout. This compound returned a TGI in [20] above 100 µM.

For `CC(=O)C1=C(C)Cn2c(=O)c3ccccc3c(=O)n2C1`, the TGI in [1], in experiment [2], in experiment [3], in experiment [4], in experiment [16] and in [6] was above 100 µM throughout. Besides, the TGI in experiment [8], in [9], in experiment [10], in experiment [17], in experiment [11] and in experiment [18] was above 100 µM each time. Besides, the TGI in experiment [12], in experiment [19], in [13], in [14], in experiment [15] and in experiment [20] was above 100 µM in each case.

Take `CCOC(=O)C1=C(C)OC(=O)[C@@]2(OC)C=C(Cl)[C@@]12C`: the TGI in [1], in experiment [2], in [3], in [4], in experiment [16] and in experiment [5] was above 100 µM in each case. In addition, the TGI in experiment [6], in experiment [8], in [9], in experiment [10], in [17] and in experiment [11] was above 100 µM throughout. For the same compound, the TGI in experiment [18], in experiment [12], in experiment [19], in [13], in experiment [14] and in [15] was above 100 µM in each case. In experiment [20], this compound registered a TGI above 100 µM.

On to `CCCCCCCCOC(CO)CO`, for which the TGI in [1], in [2], in experiment [3], in experiment [4], in [16] and in experiment [6] was above 100 µM each time. The TGI in experiment [8], in [9], in experiment [10], in [17], in experiment [11] and in [18] was above 100 µM throughout. Moreover, the TGI in [12], in experiment [19], in experiment [13], in experiment [14], in [15] and in [20] was above 100 µM each time.

With `C=CCC(CC=O)(C(=O)OCC)C(=O)OCC`, the TGI in experiment [1], in experiment [2], in [3], in experiment [4], in [16] and in [5] was above 100 µM each time. The TGI in experiment [6], in experiment [8], in experiment [9], in experiment [10], in experiment [17] and in experiment [11] was above 100 µM each time. Moreover, the TGI in experiment [18], in [12], in experiment [19], in experiment [13], in experiment [14] and in experiment [15] was above 100 µM throughout. The compound also registered a TGI in experiment [20] above 100 µM.

Consider `COc1cc(=O)n2c3ccccc3n(C)c2c1C#N`, for which the TGI in experiment [1], in experiment [2], in experiment [3], in [4], in experiment [16] and in [5] was above 100 µM each time. The TGI in experiment [6], in experiment [8], in experiment [9], in experiment [17], in [11] and in [18] was above 100 µM throughout. Further, the TGI in experiment [12], in experiment [19], in [13], in experiment [14], in experiment [15] and in experiment [20] was above 100 µM throughout.
